Columns and labels:
[1] = system: IL-1β; test: LPS-stimulated IL-1β release in hPBMCs (ELISA); assay type: cell-based; conditions: Homo sapiens; LPS-stimulated hPBMC
Protocol: Primary screening—Human peripheral blood mononuclear cells (hPBMCs). TNF-α production by lipopolysaccharides (LPS) in hPBMCs was measured according to the method described by Jansky, L. et al (Physiol. Res. 52: 593-598, (2003)). Blood was collected from healthy donors into Potassium EDTA vacutainer tubes (BD vacutainer). The PBMCs were isolated using gradient centrifugation in Histopaque-1077 solution (Sigma). Isolated PBMCs were suspended in RPMI 1640 culture medium (Gibco BRL, Pasley, UK) containing 10% fetal bovine serum (FBS) (Hyclone, Utah, USA), 100 U/ml penicillin (Sigma Chemical Co. St Louis, Mo.) and 100 μg/ml streptomycin (Sigma Chemical Co. St Louis, Mo.). The cell concentration was adjusted to 1×10^6 cells/ml. The viability as determined by trypan blue dye exclusion was uniformly ≧98%. […] The % inhibition was recorded. Percent cytotoxicity of the test samples compared to control was evaluated.
The effect of the plant extract on the proinflammatory cytokines: TNF-α, interleukin-1β (IL-1β), interleukin-6 (IL-6) and interleukin-8 (IL-8) was measured using the supernatants generated in the primary screening assay. […]
The effect of the Compound 1, on the proinflammatory cytokines: TNF-α interleukin-1β (IL-1β), interleukin-6 (IL-6) and interleukin-8 (IL-8) was measured using the supernatants generated in the primary screening assay. […]

[2] = system: E-Selectin; test: Cell-ELISA for adhesion molecule expression in HUVECs: E-Selectin; assay type: cell-based; conditions: Homo sapiens; TNF-α-induced surface expression, HUVEC
Protocol: The assay was designed on the basis of reference Transplantation, Vol 63(5), 759-764, 1997 with modifications.
Human Umbilical Vein Endothelial Cells (HUVECs) were obtained from Cascade Biologics and were maintained in M200 (Cascade Biologics, Portland, Oreg.) supplemented with low serum growth supplement (LSGS) at 37° C. in a 5% CO2 incubator. U937 cells (ATCC, Manassas, Va.) were grown in the RPMI 1640 medium supplemented with 10% FBS (Hyclone, Logan, Utah). Recombinant human TNFα, antibodies to VCAM-1, ICAM-1, E-Selectin were obtained from R&D Systems and LPS was obtained from Sigma (St. Louis, Mo.).
HUVECs were plated at […] in 96-well fibronectin-coated plates. The cells were stimulated with TNF-α (10 ng/ml) or LPS (1 μg/ml), 30 min after addition of test compound. After stimulation, cells (E-Selectin and ICAM-1) were fixed with paraformaldehyde in phosphate buffer saline (PBS). Non specific binding was blocked by 2% bovine serum albumin (BSA) in phosphate buffer saline (PBS) for 1 h, and the cells were incubated with primary antibody for 2 h. […] After washing, seven times, 3,3′5,5′-tetramethylbenzidine liquid substrate (TMB substrate) was added and the optical density of each well was determined at 450 nm using a microtitre plate reader (Spectramax, Molecular Devices, Calif.). […] Percent inhibition of the test sample compared to the control is evaluated. […]

[3] = system: TNF-α; test: LPS-induced TNF-α release in BALB/c mice; assay type: in vivo; conditions: LPS 1 mg/kg i.p., plasma
Protocol: The protocol described by Fukuda T. et al (Eur. J. Pharmacol., 391: 317-320, (2000)) was followed. BALB/c mice were divided into groups of ten each. The test sample, suspended in Tween 80 and 0.5% carboxy methylcellulose (CMC), was orally (p.o.) administered to the mice. One hour later, LPS dissolved in sterile, pyrogen-free saline was administered i.p. at the dose of 1 mg/kg. The negative control group received saline as an i.p injection, while all other groups received LPS. Rolipram (30 mg/kg, p.o.) was used as the standard drug. One and a half hours later, under urethane anaesthesia (1.5 g/kg, i.p.) blood was collected from the abdominal artery using a 1 ml syringe flushed with heparin (500 IU/ml). Heparin (5 μl) was used as an anticoagulant in the blood collection tubes. Plasma was separated by centrifugation at 10000 rpm at room temperature, aliquoted and stored at −70° C. until analysis. TNF-α levels in the blood samples were assayed using ELISA and percent inhibition of TNF-α release compared to the control group was calculated.

C=C1C(=O)OC2C3=C(C)CCCC3(C)CCC12O (centres unmarked) [Compound 1, 3a-hydroxy-5a,9-dimethyl-3-methylene-3a,4,5,5a,6,7,8,9b-octahydro-3H-naphtho[1,2-b]furan-2-one]
IC50 [1]: 400 nM
IC50 [2]: 200 nM
% inhibition of TNF-α release ([3]; 10 mg/kg p.o.): 28.69 ± 13.71%
% inhibition of TNF-α release ([3]; 30 mg/kg p.o.): 39.98 ± 10.32%
% inhibition of TNF-α release ([3]; 100 mg/kg p.o.): 87.10 ± 3.67%

From US8206756B2, “Herbal composition for inflammatory disorders” (Piramal Life Sciences Limited, priority 2005, dated 2012)
